Data as given in article PMC7094215, “Synthesis and Evaluation of Antileishmanial and Cytotoxic Activity of Benzothiopyrane Derivatives” (Molecules, 2020).
Read-outs that look alike come from different tables or passages of the source.

Columns and labels:
[1] = system: intracellular amastigotes of L. panamensis (MHOM/CO/87/UA140-EGFP strain); experiment: In vitro antileishmanial activity on intracellular amastigotes (GFP, flow cytometry); type: cell-based, Leishmania (V) panamensis; conditions: for EC50: intracellular amastigotes in U-937 cells, 72 h exposure, mean ± SD, Probit; for SI (Selectivity Index = LC50/EC50): LC50 U-937 / EC50 L. panamensis amastigotes
Protocol: Antileishmanial activity of compounds was determined according to the ability of the compound to reduce the infection by L. panamensis parasites. For this, the antileishmanial activity was tested on intracellular amastigotes of L. panamensis transfected with the green fluorescent protein gene (MHOM/CO/87/UA140-EGFP strain). Briefly, U-937 human cells at a density of 3 × 10^5 cells/mL in RPMI 1640 and 0.1 μg/mL of PMA (phorbol-12-myristate-13-acetate) were dispensed on 24-wells microplate and then infected with stationary phase growing L. panamensis promastigotes in 15:1 parasites per cell ratio. Plates were incubated at 34 °C and 5% CO2 for 3 h, and then cells were washed twice with phosphate buffer solution (PBS) to eliminate not internalized parasites. Fresh RPMI-1640 was added into each well (1 mL), and plates were incubated again. After 24 h of infection, the RPMI-1640 medium was replaced by fresh culture medium containing each compound at four serial dilutions (50, 12.5, 3.125 and 0.78 μg/mL) and plates were then incubated at 37 °C and 5% CO2 during 72 h, then, cells were removed from the bottom plate with 100 µL of EDTA/trypsin (250 mg) solution. The cells were centrifuged at 1100 rpm during 10 min at 4 °C, the supernatant was discarded, and cells were washed with 1 mL of cold PBS and centrifuged at 1100 rpm for 10 min at 4 °C. Cells were washed two times employing PBS, as previously, and after the last wash, the supernatant was discarded, and cells were suspended in 500 μL of PBS.
Cells were analyzed by flow cytometry employing a flow cytometer (FC 500MPL, Cytomics, Beckman Coulter. Pasadena, CA, USA) reading at 488 nm (exciting) and 525 nm (emitting) over an argon laser and counting 10,000 events. Infected cells were determined according to the events for green fluorescence (parasites). All determinations for each compound and standard drug were carried out by triplicate, in two experiments. Infected cells exposed to control drug (amphotericin B) were used as the control for antileishmanial activity (positive control), while infected cells incubated in the absence of any compound or drug were used as another control for infection (negative control). Nonspecific fluorescence was corrected by subtracting the fluorescence of unstained cells. Determinations were done by triplicate in at least two independent experiments.
The antileishmanial activity was determined according to the reduction of the percentage of fluorescent parasites determined according to the median fluorescence intensity (MFI) obtained for each experimental condition by cytometry. The parasite values for each concentration of compound were calculated by Equation (3), where the % of parasites in control well, corresponds to 100% of parasites:(3) % Parasites=(MFI exposed parasites/MFI unexposed parasites)×100
Then, the inhibition percentage was calculated with Equation (4):(4) % Inhibitors of Parasites=100−(% Parasites)
Results of antileishmanial activities were expressed as the median effective concentrations (EC50) measured by Probit method.

[2] = system: human monocytes (U-937 ATCC CRL-1593.2); experiment: Cytotoxic activity, MTT method; type: cell-based; conditions: 72 h
Protocol: (§1) Cytotoxicity of the compounds was evaluated on human monocytes (U-937 ATCC CRL-1593.2) in an exponential growth phase and adjusted at 1 × 10^5 cells/mL in RPMI-1640 enriched with 10% fetal bovine serum (FBS). One hundred microliters of cell suspension were dispensed in each well of a 96-wells microplate, and then 100 μL of 200-50-12.5 and 3.125 μg/mL concentration of each compound or standard drug (amphotericin B) were added dissolved in PBS with 0.5% DMSO. Cell exposed to compounds or standard drugs were incubated 72 h at 37 °C and 5% of CO2. Cytotoxic activity of each compound was determined according to the effect on the cell viability by the MTT microenzymatic method in which 3-(4,5-dimethylthiazol-2-yl)-2,5-diphenyltetrazolium bromide is reduced to a purple formazan product by mitochondrial enzyme succinate dehydrogenase. Thus, 10 μL/well of MTT solution (5 mg/mL) was added to each well of exposed and unexposed cells, and plates were incubated at 37 °C, 5% CO2 during 3 h. The reaction was stopped by adding 100 μL/well of isopropanol with 50% and 10% of SDS (sodium dodecyl sulfate). The concentration of formazan was determined spectrophotometrically at 570 nm (Varioskan, Thermo, Waltham, MA, USA) and intensity of color (absorbance) was registered as O.D. Cells exposed to control drug (amphotericin B) were used as control for toxicity (positive control) while cell incubated in the absence of any compound or drug were used as control for viability (negative control). Non-specific absorbance was corrected by subtracting absorbance (O.D) of the blank. Determinations were done by triplicate in at least two independent experiments.
(§2) Cytotoxicity was determined according to viability and mortality percentages obtained for each experimental condition (synthesized compounds, amphotericin B, and culture medium). Results were expressed as the mean lethal concentrations (LC50), the concentration necessary to kill 50% of cells, calculated by the parametric method of linear regression that permits doses-response analysis (Probit analysis).
(§3) Initially, viability percentages were calculated by Equation (1), where the O.D of control well, corresponds to 100% of viability:(1) % Viability=(O.D. exposed cells/O.D. unexposed cells)×100
(§4) Then, the percentage of cell growth inhibition was calculated using Equation (2):(2) % Inhibition =100−(% Viability)
(§5) The toxicity was defined according to LC50 values, using the follow scale: Toxic; LC50 < 100 μM; moderately toxic; LC50 > 100 μM and < 200 μM and potentially nontoxic; LC50 > 200 μM.

[3] = Cytotoxic activity, MTT method; type: cell-based; conditions: human, LC50
Protocol: as §1, §2, §3, §4, §5

[4] = Leishmania panamensis, U-937, 72 h

Row | Molecule | EC50 [1] [µM] | CC50 ([2]; U-937 cells, MTT, mean ± SD, Probit, read-out: LC50 (the source's name)) [µM] | SI (Selectivity Index = LC50/EC50) [1] | CC50 ([2]; human) [µM] | EC50 [1, 4] [µM] | CC50 at 72 h [3] [µM]
1 | 4-(2-Carbamoylhydrazineylidene)thiochromane-2-carboxylic acid [Compound 26c] | > 189 | 1160 ± 340 | – | – | – | –
2 | O=C1CC(C(=O)O)Sc2ccccc21 (stereo not drawn) [20a (-), 4-oxo-thiochroman-2-carboxylic acid] | 53.5 ± 10.8 | – | 0.6 | 33 ± 1.5 | – | –
3 | CCCCOC(=O)C1CC(=O)c2ccccc2S1 (stereo not drawn) [22b (+), butyl 4-oxothiochromane-2-carboxylates] | 368 ± 24.2 | – | 0.2 | 74.9 ± 52.8 | – | –
4 | CCCCOC(=O)C1CC(=O)c2ccccc2S1 (stereo not drawn) [22b (-), butyl 4-oxothiochromane-2-carboxylates] | 53 ± 10.8 | – | 0.5 | 28.8 ± 4.5 | – | –
5 | Cc1ccccc1NC(=O)C1CC(=O)c2ccccc2S1 (centres unmarked) [Compound 24c, 4-Oxo-N-(o-tolyl)thiochromane-2-carboxamide] | – | – | < 1.2 | – | > 101 | 119 ± 10.9
6 | CCOC(=O)C1CC(=NNC(=O)c2ccccc2)c2ccccc2S1 (centres unmarked) [Compound 26a, Ethyl 4-(2-benzoylhydrazineylidene)thiochromane-2-carboxylate] | – | – | 0.5 | – | 28.5 ± 6.3 | 15.4 ± 0.2
7 | CCOC(=O)C1CC(=NNC(=O)c2ccncc2)c2ccccc2S1 (centres unmarked) [Compound 26b, Ethyl 4-(2-isonicotinoylhydrazineylidene)thiochromane-2-carboxylate] | – | – | 0.3 | – | 53.2 ± 41 | 15.2 ± 0.2
